Measurements taken from patent publication US8592422B2, “Bicyclic triazole and pyrazole lactams as allosteric modulators of mGluR5 receptors” (Vanderbilt University, priority 2010, dated 2013).

Molecular target: T1, human mGluR5a receptor (Homo sapiens, UniProt P41594)
T1 construct: cDNA subcloned into pcDNA3.1(-)
Assay: Cell-based functional Ca2+ mobilization assay (FDSS), potentiation of glutamate EC20 response
Settings: for pEC50 / EC50: HEK cells transfected with human mGluR5 (H10H or H12H), in presence of EC20 glutamate; for EC50: read-out: EC50; for Emax (%) / Emax: maximum % effect in concentration-response curve, as percent of response to maximally effective glutamate
Method: Human embryonic kidney (HEK) cells transfected with rat mGluR5 were plated in clear bottom assay plates for assay in a Functional Drug Screening System (FDSS). In the alternative assay, HEK cells transfected with human mGluR5 were plated for assay in the FDSS. In some cases the HEK cells transfected with human mGluR5 were the H10H cell line. Alternatively, the HEK cells transfected with human mGluR5 were the H12H cell line. […] The cells were loaded with a Ca^2+-sensitive fluorescent dye (e.g., Fluo-4), and the plates were washed and placed in the FDSS instrument. After establishment of a fluorescence baseline for twelve seconds, the compounds of the present invention were added to the cells, and the response in cells was measured. Alternatively, in various further aspects, after establishment of a fluorescence baseline for about three seconds, the compounds of the present invention were added to the cells, and the response in cells was measured. Five minutes later, an mGluR5 agonist (e.g., glutamate, 3,5-dihydroxyphenylglycine, or quisqualate) was added to the cells, and the response of the cells was measured.
The above described assay operated in two modes. In the first mode, a range of concentrations of the present compounds were added to cells, followed by a single fixed concentration of agonist. If a compound acted as a potentiator, an EC50 value for potentiation and a maximum extent of potentiation by the compound at this concentration of agonist was determined by non-linear curve fitting. In the second mode, several fixed concentrations of the present compounds were added to various wells on a plate, followed by a range of concentrations of agonist for each concentration of present compound; the EC50 values for the agonist at each concentration of compound were determined by non-linear curve fitting. A decrease in the EC50 value of the agonist with increasing concentrations of the present compounds (a leftward shift of the agonist concentration-response curve) is an indication of the degree of mGluR5 potentiation at a given concentration of the present compound. An increase in the EC50 value of the agonist with increasing concentrations of the present compounds (a rightward shift of the agonist concentration-response curve) is an indication of the degree of mGluR5 antagonism at a given concentration of the present compound. The second mode also indicates whether the present compounds also affect the maximum response to mGluR5 to agonists.
The mGluR5 activity was determined using the metabotropic glutamate receptor activity assays in human embryonic kidney cells as described herein, wherein the human embryonic kidney cells were transfected with human mGluR5. The compounds in Table 1 were synthesized with methods identical or analogous to those shown herein. The requisite starting materials were commercially available, described in the literature, or readily synthesized by one skilled in the art of organic synthesis. The compound number given in Table I corresponds to the compound number in Table II and the structure given therein.
Human mGluR5a cDNA in pCMV6-XL6 mammalian expression plasmid was purchased from OriGene Technologies, Inc. (catalogue number SC326357) and subcloned into pcDNA3.1(−). Human embryonic kidney (HEK) 293A cells were then transfected with human mGluR5a pcDNA3.1(−) using LipofectAmine-2000 (Invitrogen) and monoclones were selected and tested for functional response using a Ca^2+ mobilization assay. Monoclones were named for the species (“H” for human) plus the location on the plate (e.g. “10H”).
HEK cells transfected with the human mGluR5a receptor (H10H or H12H cell line) were plated at 15,000 cells/well in clear-bottomed poly-D-lysine-coated assay plates (BD Falcon) in glutamate-glutamine-free growth medium and incubated overnight at 37° C. and 5% CO2.

T1 sequence (P41594 21-1180 isoform P41594-2 limits assumed): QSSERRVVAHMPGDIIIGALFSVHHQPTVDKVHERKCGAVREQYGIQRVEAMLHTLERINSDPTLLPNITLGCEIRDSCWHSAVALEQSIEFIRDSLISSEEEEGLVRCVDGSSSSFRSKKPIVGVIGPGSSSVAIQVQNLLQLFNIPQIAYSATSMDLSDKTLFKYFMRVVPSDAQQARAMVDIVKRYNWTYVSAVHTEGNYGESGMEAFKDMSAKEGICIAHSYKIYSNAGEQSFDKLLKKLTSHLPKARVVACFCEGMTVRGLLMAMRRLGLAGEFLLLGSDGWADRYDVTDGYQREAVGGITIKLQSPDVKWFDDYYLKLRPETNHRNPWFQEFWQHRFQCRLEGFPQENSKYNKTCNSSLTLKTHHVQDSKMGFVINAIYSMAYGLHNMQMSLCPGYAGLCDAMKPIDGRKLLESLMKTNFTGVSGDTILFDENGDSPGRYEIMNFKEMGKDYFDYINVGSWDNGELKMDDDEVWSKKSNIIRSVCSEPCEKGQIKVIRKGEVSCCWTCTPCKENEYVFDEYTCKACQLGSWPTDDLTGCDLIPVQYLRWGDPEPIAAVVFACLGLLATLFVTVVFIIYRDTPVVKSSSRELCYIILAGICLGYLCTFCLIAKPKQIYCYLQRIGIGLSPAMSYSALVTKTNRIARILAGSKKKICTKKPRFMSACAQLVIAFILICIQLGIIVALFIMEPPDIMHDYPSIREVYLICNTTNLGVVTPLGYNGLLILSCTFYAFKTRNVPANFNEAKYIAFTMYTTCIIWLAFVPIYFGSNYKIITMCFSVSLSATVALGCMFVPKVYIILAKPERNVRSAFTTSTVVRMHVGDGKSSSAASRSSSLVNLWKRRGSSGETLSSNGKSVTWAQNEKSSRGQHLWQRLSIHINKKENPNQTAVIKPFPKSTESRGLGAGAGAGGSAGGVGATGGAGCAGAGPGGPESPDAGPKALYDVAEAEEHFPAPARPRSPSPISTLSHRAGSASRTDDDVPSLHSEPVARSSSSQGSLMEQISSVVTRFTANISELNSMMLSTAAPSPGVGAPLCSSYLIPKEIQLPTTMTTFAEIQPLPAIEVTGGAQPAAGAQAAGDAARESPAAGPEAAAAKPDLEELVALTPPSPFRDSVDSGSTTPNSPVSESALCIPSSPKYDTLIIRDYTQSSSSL

| pEC50 | EC50 [nM] | Emax (%) | Emax [%] | SMILES |
| --- | --- | --- | --- | --- |
| 6.37 | 430 | 68 | – | COCc1ccccc1N1CCn2nc(COc3ccccc3)cc2C1=O [Example 63] |
| 7.03 | 93 | 72 | – | O=C1c2cc(COc3ccccc3)nn2CCN1c1cccc(C2CC2)n1 [Example 66] |
| 7.64 | 23 | 67 | – | COc1nc(N2CCn3nc(COc4ccccc4)cc3C2=O)ccc1F [Example 73] |
| 6.69 | 204 | 68 | – | O=C1c2cc(COc3ccccc3)nn2CCN1c1cccc(CCF)n1 [Example 75] |
| <5.00 | > 10000 | 42 | – | O=C1c2cc(COc3ccccc3)nn2CCN1c1ncccn1 [Example 77] |
| 5.66 | 2190 | 48 | – | COc1cccnc1N1CCn2nc(COc3ccccc3)cc2C1=O [Example 79] |
| 6.26 | 550 | 67 | – | O=C1c2cc(COc3ccccc3)nn2CCN1c1ncccc1F [Example 81] |
| 5.81 | 1550 | 61 | – | Cc1ccnc(N2CCn3nc(COc4ccccc4)cc3C2=O)n1 [Example 82] |
| – | 437 | – | 72 | COCCOc1cccc(N2CCn3nc(COc4ccccc4)cc3C2=O)n1 [Example 85] |
| 6.69 | 204 | 73 | – | Cc1cc(F)cnc1N1CCn2nc(COc3ccccc3)cc2C1=O [Example 86] |
| 6.75 | 178 | 72 | – | Cc1ccc(F)c(N2CCn3nc(COc4ccccc4)cc3C2=O)n1 [Example 88] |
| <5.00 | > 10000 | 75 | – | COc1ccc(N2CCn3nc(COc4ccccc4)cc3C2=O)nn1 [Example 89] |
| 7.19 | 65 | 71 | – | COc1nc(N2CCn3nc(COc4ccccc4)cc3C2=O)ncc1F [Example 91] |
| 6.51 | 309 | 71 | – | Cc1cncc(N2CCn3nc(COc4ccccc4)cc3C2=O)n1 [Example 92] |
| <4.52 | > 30200 | 29 | – | Cc1cnnc(N2CCn3nc(COc4ccccc4)cc3C2=O)c1 [Example 93] |
| 6.29 | 513 | 65 | – | Cc1nccc(N2CCn3nc(COc4ccccc4)cc3C2=O)n1 [Example 94] |
| 6.82 | 150 | 54 | – | N#Cc1cccc(N2CCn3nc(COc4ccccc4)cc3C2=O)n1 [Example 95] |
| 7.01 | 98 | 68 | – | COc1nc(N2CCn3nc(COc4ccccc4)cc3C2=O)ncc1C [Example 97] |
| 6.13 | 741 | 63 | – | COc1nc(C)cc(N2CCn3nc(COc4ccccc4)cc3C2=O)n1 [Example 98] |
| 6.53 | 295 | 78 | – | COc1cnc(N2CCn3nc(COc4ccccc4)cc3C2=O)cn1 [Example 101] |
| 7.03 | 93 | 72 | – | COc1nccnc1N1CCn2nc(COc3ccccc3)cc2C1=O [Example 103] |
| – | 389 | – | 53 | COc1ncc(C)c(N2CCn3nc(COc4ccccc4)cc3C2=O)n1 [Example 106] |
| 7.13 | 74 | 63 | – | COc1ccc(C)c(N2CCn3nc(COc4ccccc4)cc3C2=O)n1 [Example 109] |
| 6.70 | 200 | 68 | – | COc1nccc(N2CCn3nc(COc4ccccc4)cc3C2=O)n1 [Example 110] |
| 6.98 | 105 | 69 | – | COc1cncc(N2CCn3nc(COc4ccccc4)cc3C2=O)n1 [Example 112] |

| pEC50 | EC50 [nM] | Emax (%) | Emax [%] | SMILES |
| --- | --- | --- | --- | --- |
| – | 724 | – | 57 | COc1ncncc1N1CCn2nc(COc3ccccc3)cc2C1=O [Example 113] |
| 5.96 | 1100 | 66 | – | COc1ccnc(N2CCn3nc(COc4ccccc4)cc3C2=O)c1 [Example 115] |
| 5.69 | 2000 | 67 | – | COc1cncnc1N1CCn2nc(COc3ccccc3)cc2C1=O [Example 118] |
| – | 2300 | – | 72 | COc1cnc(C)nc1N1CCn2nc(COc3ccccc3)cc2C1=O [Example 119] |
| 6.91 | 120 | 61 | – | COc1cc(N2CCn3nc(COc4ccccc4)cc3C2=O)nc(OC)n1 [Example 122] |
| – | > 10000 | – | 48 | COc1cnnc(N2CCn3nc(COc4ccccc4)cc3C2=O)c1 [Example 125] |
| 6.68 | 210 | 63 | – | COc1cc(OC)nc(N2CCn3nc(COc4ccccc4)cc3C2=O)n1 [Example 127] |
| 6.13 | 741 | 56 | – | CC1Cn2nc(COc3ccccc3)cc2C(=O)N1CC1CC1 (stereo not drawn) [Example 136] |
| 6.05 | 891 | 43 | – | CC1Cn2nc(COc3ccccc3)cc2C(=O)N1c1ccc(F)cn1 (stereo not drawn) [Example 139] |
| 7.19 | 65 | 68 | – | CC1Cn2nc(COc3ccccc3)cc2C(=O)N1c1ccc(F)cc1 (stereo not drawn) [Example 142] |
| 5.85 | 1410 | 59 | – | COc1nccc(N2C(=O)c3cc(COc4ccccc4)nn3CC2C)n1 (stereo not drawn) [Example 145] |
| 6.27 | 537 | 72 | – | COc1nc(N2C(=O)c3cc(COc4ccccc4)nn3CC2C)ncc1F (stereo not drawn) [Example 147] |
| 7.22 | 60 | 71 | – | Cc1cccc(N2C(=O)c3cc(COc4ccccc4)nn3CC2C)c1 (stereo not drawn) [Example 153] |
| 6.24 | 575 | 63 | – | CC1Cn2nc(COc3ccccc3)cc2C(=O)N1c1ccc(F)cc1 (stereo not drawn) [Example 157] |
| – | 3090 | – | 69 | O=C1c2cc(COc3cccnc3)nn2CCN1c1ccc(F)cc1 [Example 158] |
| 6.32 | 479 | 69 | – | O=C1c2cc(COc3ccccn3)nn2CCN1c1ccc(F)cc1 [Example 159] |
| – | 1320 | – | 68 | O=C1c2cc(COc3cncc(F)c3)nn2CCN1c1ccc(F)cc1 [Example 161] |
| – | 2510 | – | 47 | O=C1c2cc(COc3ccccn3)nn2CCN1CC1CC1 [Example 162] |
| – | 2240 | – | 63 | O=C1c2cc(COc3ccncc3)nn2CCN1CC1CC1 [Example 163] |
| <4.52 | > 30200 | 28 | – | N#Cc1cccc(OCc2cc3n(n2)CCN(CC2CC2)C3=O)c1 [Example 164] |
| 6.98 | 105 | 71 | – | O=C1c2cc(COc3ccc(F)cc3)nn2CCN1c1ccc(F)cc1 [Example 165] |
| 6.58 | 263 | 64 | – | O=C1c2cc(COc3ccc(F)cc3)nn2CCN1CC1CC1 [Example 167] |
| 5.18 | 6610 | 30 | – | Cc1cccc(OCc2cc3n(n2)CCN(CC2CC2)C3=O)c1 [Example 168] |
| 6.51 | 309 | 62 | – | N#Cc1cccc(OCc2cc3n(n2)CCN(c2ccc(F)cc2)C3=O)c1 [Example 169] |
